Experimental data published in ChEMBL document CHEMBL5046260, “Anti-inflammatory Dimeric Tetrahydroxanthones from an Endophytic Muyocopron laterale” (J Nat Prod, 2022).

Legend:
RAW264.7 [1] = assay: Antiinflammatory activity in mouse RAW 264.7 cells assessed as inhibition of LPS-induced NO production measured after 24 hrs by Griess assay; type: functional, cell-based; conditions: RAW264.7, 24 h
RAW264.7 [2] = assay: Antiinflammatory activity in mouse RAW 264.7 cells assessed as inhibition of LPS-induced NO production at 10 uM measured after 24 hrs by Griess assay relative to control; type: functional; set-up: scale not given: the % may be the effect or the level left

Row | Compound | IC50 (RAW264.7 [1]) [µM] | Activity (RAW264.7 [2]) [%]
1 | CO[C@H]1CC(=O)O[C@@H]1[C@]1(C)CC(=O)c2c(cc(C)c(-c3c(C)cc4c(c3O)C(=O)C3=C(O)C[C@H](OC)[C@H](O)[C@]3(C)O4)c2O)O1 | > 10 | 36.6
2 | CO[C@H]1CC(=O)O[C@@H]1[C@@]1(C)CC(=O)c2c(cc(C)c(-c3c(C)cc(O)c4c3O[C@](C)([C@H]3OC(=O)C[C@@H]3OC)CC4=O)c2O)O1 | > 10 | 7.6
3 | CO[C@H]1CC(O)=C2C(=O)c3c(cc(C)c(-c4c(C)cc5c(c4O)C(=O)C4=C(O)C[C@H](OC)[C@H](O)[C@]4(C)O5)c3O)O[C@@]2(C)[C@H]1O | > 10 | 52.7
4 | CO[C@H]1CC(=O)O[C@@H]1[C@@]1(C)CC(=O)c2c(cc(C)c(-c3c(C)cc4c(c3O)C(=O)C3=CC[C@H](OC)[C@H](O)[C@]3(C)O4)c2O)O1 | 5.1 | 84.4
5 | CO[C@H]1CC(=O)O[C@@H]1[C@@]1(C)CC(=O)c2c(cc(C)c(-c3c(C)cc4c(c3O)C(=O)C[C@](C)([C@H]3OC(=O)C[C@@H]3OC)O4)c2O)O1 | 5.2 | 72
6 | CO[C@H]1CC=C2C(=O)c3c(cc(C)c(-c4c(C)cc5c(c4O)C(=O)C4=C(O)C[C@H](OC)[C@H](O)[C@]4(C)O5)c3O)O[C@@]2(C)[C@H]1O | 1.3 | 89.8
7 | CO[C@H]1CC(=O)O[C@@H]1[C@@]1(C)CC(=O)c2c(cc(C)c(-c3c(C)cc4c(c3O)C(=O)C3=C(O)C[C@H](OC)[C@H](O)[C@]3(C)O4)c2O)O1 | > 10 | 13.2
8 | CO[C@H]1CC(=O)O[C@@H]1[C@@]1(C)CC(=O)c2c(cc(C)c(-c3c(C)cc4c(c3O)C(=O)C[C@@](C)([C@H]3OC(=O)C[C@@H]3OC)O4)c2O)O1 | > 10 | 16.2
9 | CO[C@H]1CC(=O)O[C@@H]1[C@]1(C)CC(=O)c2c(O)cc(C)c(-c3c(C)cc4c(c3O)C(=O)C3=C(O)C[C@H](OC)[C@H](O)[C@]3(C)O4)c2O1 | > 10 | 52.7
10 | CO[C@H]1CC(=O)O[C@@H]1[C@]1(C)CC(=O)c2c(O)cc(C)c(-c3c(C)cc4c(c3O)C(=O)C3=CC[C@H](OC)[C@H](O)[C@]3(C)O4)c2O1 | > 10 | 33.2
11 | CO[C@H]1CC(=O)O[C@@H]1[C@]1(C)CC(=O)c2c(cc(C)c(-c3c(C)cc4c(c3O)C(=O)C[C@@](C)([C@H]3OC(=O)C[C@@H]3OC)O4)c2O)O1 | > 10 | 5.9
12 | COc1cc(/C=C/C(=O)CC(=O)/C=C/c2ccc(O)c(OC)c2)ccc1O [CURCUMIN] | 2.2 | 79.2
